Each structure is given as a SMILES string.

In experiment [1] the target is T1, Carboxypeptidase B (Helicoverpa zea, UniProt Q3T905).
T1 sequence (Q3T905 whole entry): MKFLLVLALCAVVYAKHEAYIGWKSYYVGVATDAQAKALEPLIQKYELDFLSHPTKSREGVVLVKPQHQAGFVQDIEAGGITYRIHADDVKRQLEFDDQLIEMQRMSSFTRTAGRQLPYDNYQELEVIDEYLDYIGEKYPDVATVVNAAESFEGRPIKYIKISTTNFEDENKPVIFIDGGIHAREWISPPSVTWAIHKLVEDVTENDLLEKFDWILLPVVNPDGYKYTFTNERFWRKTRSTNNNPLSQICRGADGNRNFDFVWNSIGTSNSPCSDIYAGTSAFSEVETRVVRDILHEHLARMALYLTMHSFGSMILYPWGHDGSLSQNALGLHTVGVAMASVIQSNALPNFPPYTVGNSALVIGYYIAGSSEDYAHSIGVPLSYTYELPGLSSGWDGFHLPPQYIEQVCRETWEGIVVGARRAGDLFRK
Description: Inhibition of corn earworm recombinant carboxypeptidase B expressed in Pichia pastoris system.

The target of experiment [2] is T2, Carboxypeptidase B (Homo sapiens, UniProt P15086).
T2 sequence (P15086 whole entry): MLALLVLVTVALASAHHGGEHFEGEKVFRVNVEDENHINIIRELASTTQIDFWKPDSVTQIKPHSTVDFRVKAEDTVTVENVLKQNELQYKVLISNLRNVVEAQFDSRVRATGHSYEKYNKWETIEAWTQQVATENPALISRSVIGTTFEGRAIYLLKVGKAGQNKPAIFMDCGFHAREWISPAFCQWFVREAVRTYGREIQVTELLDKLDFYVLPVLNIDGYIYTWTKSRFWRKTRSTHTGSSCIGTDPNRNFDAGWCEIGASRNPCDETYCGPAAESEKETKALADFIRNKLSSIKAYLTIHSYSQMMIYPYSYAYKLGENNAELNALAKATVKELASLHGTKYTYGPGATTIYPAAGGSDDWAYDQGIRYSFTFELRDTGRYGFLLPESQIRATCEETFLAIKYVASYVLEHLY
Description: Inhibition of human recombinant carboxypeptidase B expressed in Pichia pastoris system.

The next experiment concerns the target T3, Carboxypeptidase A1 (Bos taurus, UniProt P00730).
T3 sequence (P00730 whole entry): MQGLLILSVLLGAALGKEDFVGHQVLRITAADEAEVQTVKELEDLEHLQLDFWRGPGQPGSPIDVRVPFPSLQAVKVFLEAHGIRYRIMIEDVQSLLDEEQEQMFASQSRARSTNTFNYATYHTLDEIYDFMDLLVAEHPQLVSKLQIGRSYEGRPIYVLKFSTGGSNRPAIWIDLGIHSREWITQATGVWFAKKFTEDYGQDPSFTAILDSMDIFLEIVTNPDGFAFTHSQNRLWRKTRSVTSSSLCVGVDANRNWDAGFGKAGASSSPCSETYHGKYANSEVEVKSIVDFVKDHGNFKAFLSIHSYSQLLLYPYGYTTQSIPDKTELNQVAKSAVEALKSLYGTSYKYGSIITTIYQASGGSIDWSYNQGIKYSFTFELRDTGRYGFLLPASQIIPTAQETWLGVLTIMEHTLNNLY
Description: Inhibition of bovine carboxypeptidase A1.

Experiment [3] in a line: Selectivity ratio, Ki for bovine carboxypeptidase A1 to Ki for human recombinant carboxypeptidase B.

Take `O=S(=O)(NCc1cccs1)c1ccc(-c2nnc(SCc3ccccc3Cl)o2)cc1`: the Ki was determined as 1.4 µM at Carboxypeptidase B [1] (read-out: Ki), 40 µM on Carboxypeptidase B [2] and 67.3 µM on Carboxypeptidase A1.
Turning to `COC(=O)CSc1nnc(-c2ccccc2O)n1Cc1ccccc1`, the Ki on Carboxypeptidase B [1] (read-out: Ki) was 41.6 µM; on Carboxypeptidase B [2], 4.9 µM; at Carboxypeptidase A1, 159 µM. For the same compound, the Ratio Ki in experiment [3] turned out to be 30.
Turning to `COc1ccccc1Cn1c(SCC(=O)N2CCC(C)CC2)nnc1-c1ccncc1`, the inhibition constant Ki amounted to 30.2 µM on Carboxypeptidase B [1] (read-out: Ki), 20.8 µM at Carboxypeptidase B [2] and 381 µM on Carboxypeptidase A1.
On to `O=C(CSc1nnc(-c2ccco2)n1Cc1ccccc1)c1ccc(F)cc1`, for which the inhibition constant (Ki) result on Carboxypeptidase B [1] is “Not Active”; on Carboxypeptidase B [2], 74.5 µM; on Carboxypeptidase A1, 236 µM.
As for `O=C(O)c1ccccc1C(=O)N1CCC(C(=O)c2ccccc2)CC1`, the Ki on Carboxypeptidase B [1] (read-out: Ki) amounted to 19.6 µM; at Carboxypeptidase B [2], 20.7 µM; at Carboxypeptidase A1, 320 µM.
With `O=C(O)c1cccc(-n2nnnc2SCC(=O)c2ccccc2F)c1`, the figures for the Ki at Carboxypeptidase B [1] (read-out: Ki), at Carboxypeptidase B [2] and at Carboxypeptidase A1 were 53.8 µM, 33.6 µM and 550 µM, respectively.
As to `O=C(C1CC1)N(Cc1ccccc1)c1nc(-c2ccccc2)cs1`, the Ki amounted to 1.2 µM at Carboxypeptidase B [1] (read-out: Ki), 4.5 µM on Carboxypeptidase B [2] and 800 µM at Carboxypeptidase A1. Moreover, in experiment [3], the Ratio Ki came to 160.
Regarding `CCOC(=O)C(Sc1nnc(COc2ccc(CC)cc2)n1CC)C(C)C` (configuration not stated), the inhibition constant Ki at Carboxypeptidase B [1] (read-out: Ki) was determined as 11.9 µM; on Carboxypeptidase B [2], 10.8 µM; at Carboxypeptidase A1, 22 µM.
The corresponding values for `O=C(CSc1nnc(-c2ccccc2F)o1)OCc1ccccc1` are 33.4 µM, 67.2 µM and 32 µM.
In the case of `Cc1ccc(S(=O)(=O)N2CCN(C(=O)CNCc3ccncc3)CC2)cc1`, the inhibition constant Ki came to 18 µM at Carboxypeptidase B [1] (read-out: Ki), 364 µM on Carboxypeptidase B [2] and 250 µM on Carboxypeptidase A1.
The corresponding values for `Cc1ccccc1CCNS(=O)(=O)c1ccc(-n2cnnn2)c(C)c1` are 38 µM, 25.9 µM and 138 µM.
The corresponding values for `CCCN(C(=O)Cc1ccccc1OC)c1nnc(-c2ccc(OC)cc2)s1` are 19.7 µM, 25.1 µM and 128 µM.
The matching figures for `COc1ccccc1-c1nnc(SCC(=O)OC(C)C)n1Cc1ccccc1`: 36.1 µM, 7.4 µM and 160 µM.
As for `COc1cccc(CN(Cc2cccnc2)S(=O)(=O)c2ccc(-n3cnnn3)c(C)c2)c1`, the Ki was determined as 28.4 µM at Carboxypeptidase B [1] (read-out: Ki), 23.9 µM on Carboxypeptidase B [2] and 148 µM at Carboxypeptidase A1.
The matching figures for `O=C(O)CC(Cc1ccccc1)C(=O)O` (racemic): 11.9 µM, 10 µM and 0.5 µM.
For the compound `O=S(=O)(NCc1ccccc1)c1ccc(S(=O)(=O)N(Cc2cccs2)CC2CCCO2)cc1` (configuration not stated), the Ki result at Carboxypeptidase B [1] was “Not Active”; on Carboxypeptidase B [2], 23 µM; at Carboxypeptidase A1 it was 19.4 µM.
Consider `Cc1ccc(C)c2c1[nH]c1nc(SCC(=O)c3ccc(F)cc3)nnc12`, for which the inhibition constant Ki at Carboxypeptidase B [1] (read-out: Ki) turned out to be 9 µM; on Carboxypeptidase B [2], 15 µM; on Carboxypeptidase A1, 86.3 µM.
In the case of `COc1cccc(CSc2nnc(Cc3csc(Nc4cccc(Cl)c4)n3)o2)c1`, the Ki at Carboxypeptidase B [1] (read-out: Ki) was determined as 3.6 µM; at Carboxypeptidase B [2], 1.2 µM; at Carboxypeptidase A1, 22.5 µM.
As for `Cc1ccc(C(=O)CSc2nnc(COc3ccc(Cl)cc3)o2)cc1`, the Ki at Carboxypeptidase B [1] (read-out: Ki) came to 12 µM; on Carboxypeptidase B [2], 11.7 µM; at Carboxypeptidase A1 it was 36.7 µM.
The matching figures for `NC(=O)CSc1nnc(-c2cccs2)n1Cc1ccccc1`: 27.2 µM, 11.6 µM and 155 µM.
In the case of `Cc1cccc(CCc2nnc(SCC(=O)O)n2Cc2ccccc2)c1`, the inhibitory constant (Ki) at Carboxypeptidase B [1] (read-out: Ki) came out at 57 µM; on Carboxypeptidase B [2] it was 196 µM; at Carboxypeptidase A1 it was 217 µM.
In the case of `O=C(CSc1nnc(-c2ccccc2O)o1)c1ccc(Cl)cc1`, the Ki on Carboxypeptidase B [1] (read-out: Ki) is 1 µM; on Carboxypeptidase B [2], 7.5 µM; on Carboxypeptidase A1, 2.1 µM. Further, in experiment [3], the Ratio Ki was 20.
Consider `N=C(N)NCCSC(CC(=O)O)C(=O)O` (racemic), for which the Ki on Carboxypeptidase B [2] is 1.1 µM.
For the compound `COc1ccc(C(=O)Cn2nnc(-c3ccccc3NC(=O)C3CC3)n2)cc1`, the Ki at Carboxypeptidase B [1] (read-out: Ki) amounted to 31 µM; at Carboxypeptidase B [2] it was 292 µM; at Carboxypeptidase A1 it was 41.3 µM.
The corresponding values for `Cc1cc(S(=O)(=O)N(Cc2ccco2)Cc2ccccc2Cl)ccc1-n1cnnn1` are 12.6 µM, 16.6 µM and 159 µM.
`O=C(CSc1nnc(-c2ccc(O)cc2)n1Cc1ccco1)c1cccs1`: the Ki result is “Not Active” at Carboxypeptidase B [1], 9.1 µM at Carboxypeptidase B [2] and 74.5 µM on Carboxypeptidase A1.
Take `Cc1ccccc1-c1nnc(SCC(=O)c2ccccc2F)o1`: the Ki at Carboxypeptidase B [1] (read-out: Ki) came out at 40 µM; at Carboxypeptidase B [2] it was 14.7 µM; on Carboxypeptidase A1, 39.3 µM.

The term Ki denotes a measure of affinity in units of concentration, obtained from inhibition or displacement.

These data come from ChEMBL document CHEMBL1153015, “A new type of five-membered heterocyclic inhibitors of basic metallocarboxypeptidases” (Eur J Med Chem, 2009).
